{"source": "paper PMC6013247", "about": "“Preclinical characterization of INCB053914, a novel pan-PIM kinase inhibitor, alone and in combination with anticancer agents, in models of hematologic malignancies” (PLoS ONE, 2018)", "key": {"[1]": {"biological_target": "PHKG2 (Homo sapiens, UniProt P15735)", "sequence (P15735 whole entry)": "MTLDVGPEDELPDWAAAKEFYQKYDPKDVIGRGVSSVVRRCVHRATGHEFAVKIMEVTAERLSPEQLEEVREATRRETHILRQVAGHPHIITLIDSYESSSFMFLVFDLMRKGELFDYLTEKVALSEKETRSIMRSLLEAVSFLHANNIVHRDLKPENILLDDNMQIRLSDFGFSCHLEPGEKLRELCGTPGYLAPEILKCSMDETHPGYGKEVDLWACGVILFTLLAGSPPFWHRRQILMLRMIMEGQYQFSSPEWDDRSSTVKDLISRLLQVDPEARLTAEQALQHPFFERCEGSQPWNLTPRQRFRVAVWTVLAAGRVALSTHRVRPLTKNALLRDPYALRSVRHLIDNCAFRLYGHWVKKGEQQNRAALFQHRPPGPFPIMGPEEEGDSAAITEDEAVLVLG", "assay": "Kinase selectivity panel", "assay_type": "biochemical", "conditions": "[ATP] = 1 mM"}, "[2]": {"biological_target": "FGFR3 (Homo sapiens, UniProt P22607)", "sequence (P22607 23-806)": "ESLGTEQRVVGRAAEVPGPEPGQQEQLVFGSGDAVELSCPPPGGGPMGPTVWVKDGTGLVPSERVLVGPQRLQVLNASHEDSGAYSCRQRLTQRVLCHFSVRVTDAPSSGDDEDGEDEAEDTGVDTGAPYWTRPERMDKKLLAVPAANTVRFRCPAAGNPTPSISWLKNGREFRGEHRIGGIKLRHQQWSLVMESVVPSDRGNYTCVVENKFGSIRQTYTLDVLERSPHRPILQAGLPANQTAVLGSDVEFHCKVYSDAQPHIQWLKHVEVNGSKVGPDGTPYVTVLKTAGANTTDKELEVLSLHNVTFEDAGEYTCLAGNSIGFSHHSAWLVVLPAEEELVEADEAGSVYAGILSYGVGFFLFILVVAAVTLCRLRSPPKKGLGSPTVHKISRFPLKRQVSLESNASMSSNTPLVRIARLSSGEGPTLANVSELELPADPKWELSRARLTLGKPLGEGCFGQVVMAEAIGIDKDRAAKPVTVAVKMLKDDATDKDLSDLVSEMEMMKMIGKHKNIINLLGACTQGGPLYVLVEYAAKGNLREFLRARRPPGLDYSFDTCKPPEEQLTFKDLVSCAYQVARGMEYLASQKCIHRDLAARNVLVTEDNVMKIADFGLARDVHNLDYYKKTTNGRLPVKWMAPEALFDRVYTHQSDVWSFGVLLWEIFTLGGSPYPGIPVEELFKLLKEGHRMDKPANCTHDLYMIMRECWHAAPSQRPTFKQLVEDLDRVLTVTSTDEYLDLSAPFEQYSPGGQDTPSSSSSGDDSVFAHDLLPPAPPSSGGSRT", "assay": "Kinase selectivity panel", "assay_type": "biochemical", "conditions": "[ATP] = 1 mM"}, "[3]": {"biological_target": "PIM1 (Homo sapiens, UniProt P11309)", "sequence (P11309 whole entry)": "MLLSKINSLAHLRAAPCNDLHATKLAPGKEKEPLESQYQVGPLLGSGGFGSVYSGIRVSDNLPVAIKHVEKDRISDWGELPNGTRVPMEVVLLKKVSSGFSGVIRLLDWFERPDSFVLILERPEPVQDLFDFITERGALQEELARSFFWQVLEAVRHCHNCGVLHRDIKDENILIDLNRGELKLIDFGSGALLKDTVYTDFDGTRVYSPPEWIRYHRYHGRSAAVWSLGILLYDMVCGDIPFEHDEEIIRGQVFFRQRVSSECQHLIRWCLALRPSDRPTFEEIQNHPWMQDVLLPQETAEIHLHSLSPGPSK", "assay": "PIM1 AlphaScreen kinase assay", "assay_type": "biochemical", "conditions": "1 mM ATP; read-out: Mean (SD) IC50", "description": "The activity of INCB053914 against the PIM1 and PIM3 kinases was measured using AlphaScreen® assays (PerkinElmer, Inc., Shelton, Connecticut), and against PIM2 kinase using a time-resolved fluorescence resonance energy transfer assay (see Supporting Information, S1 File)\nAlphaScreen assay. Reactions (20 μl) were carried out in white 384-well polystyrene plates (Greiner Bio-One, Kremsmünster, Austria) dotted with 0.8 μl of the compound in dimethylsulfoxide in the assay buffer (50 mM Tris, pH 7.5, 0.01% Tween-20, 5 mM MgCl2, 0.01% bovine serum albumin [BSA], 5 mM dithiothreitol) containing 0.05 μM Biotin-labeled Bcl-2–associated death promoter protein peptide substrate (AnaSpec, Fremont, California), 1 mM ATP, and 2.5 pM PIM1 (Invitrogen, Thermo Fisher Scientific, Waltham, Massachusetts), or 1.25 pM PIM3 (Millipore, Billerica, Massachusetts) enzyme. […] After the reactions were stopped, the plates were incubated for 1 hour in the dark at room temperature and then read on a PHERAstar FS plate reader (BMG Labtech, Cary, North Carolina) under reduced light."}, "[4]": {"test_system": "PIM2 expression in KG-1a, Pfeiffer and KMS-12-PE cells", "assay": "Western blot of PIM2 expression in cell lines", "assay_type": "cell-based", "conditions": "KG-1a (AML)"}, "[5]": {"biological_target": "PDGFR BETA (Homo sapiens, UniProt P09619)", "sequence (P09619 33-1106)": "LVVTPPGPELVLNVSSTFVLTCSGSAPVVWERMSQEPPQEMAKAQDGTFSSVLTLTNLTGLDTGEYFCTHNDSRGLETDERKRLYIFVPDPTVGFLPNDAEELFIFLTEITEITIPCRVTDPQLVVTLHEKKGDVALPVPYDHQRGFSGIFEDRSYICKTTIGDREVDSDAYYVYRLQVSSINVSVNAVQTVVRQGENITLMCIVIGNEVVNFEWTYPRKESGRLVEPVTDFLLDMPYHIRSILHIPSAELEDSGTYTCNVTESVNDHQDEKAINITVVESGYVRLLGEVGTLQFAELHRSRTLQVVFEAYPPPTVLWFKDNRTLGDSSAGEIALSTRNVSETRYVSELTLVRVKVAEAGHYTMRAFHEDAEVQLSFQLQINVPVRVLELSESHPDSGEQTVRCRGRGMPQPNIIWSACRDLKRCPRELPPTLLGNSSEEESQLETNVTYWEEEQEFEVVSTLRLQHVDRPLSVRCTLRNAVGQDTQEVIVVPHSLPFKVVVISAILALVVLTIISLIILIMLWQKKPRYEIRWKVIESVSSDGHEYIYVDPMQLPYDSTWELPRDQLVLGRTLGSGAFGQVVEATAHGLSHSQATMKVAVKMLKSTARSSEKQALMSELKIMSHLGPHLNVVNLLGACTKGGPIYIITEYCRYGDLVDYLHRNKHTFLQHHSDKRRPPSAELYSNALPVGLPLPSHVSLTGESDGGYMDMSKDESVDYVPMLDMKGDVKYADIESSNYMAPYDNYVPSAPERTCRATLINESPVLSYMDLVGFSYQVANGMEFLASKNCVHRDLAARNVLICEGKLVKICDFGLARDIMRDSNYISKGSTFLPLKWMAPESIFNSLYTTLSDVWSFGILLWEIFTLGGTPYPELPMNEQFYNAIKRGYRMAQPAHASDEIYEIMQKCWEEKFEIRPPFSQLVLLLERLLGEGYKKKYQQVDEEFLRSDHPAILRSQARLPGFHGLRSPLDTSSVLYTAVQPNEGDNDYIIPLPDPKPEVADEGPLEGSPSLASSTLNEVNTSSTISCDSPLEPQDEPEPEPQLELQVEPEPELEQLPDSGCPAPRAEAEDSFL", "assay": "Kinase selectivity panel", "assay_type": "biochemical", "conditions": "[ATP] = 1 mM"}, "[6]": {"test_system": "panel of more than 50 kinases", "conditions": "except for RSK2", "description": "S1 Table. Selectivity of INCB053914 for PIM kinases compared with 56 kinases representative of the kinome [ATP] = 1 mM."}, "[7]": {"biological_target": "KIT (Homo sapiens, UniProt P10721)", "sequence (P10721 26-976)": "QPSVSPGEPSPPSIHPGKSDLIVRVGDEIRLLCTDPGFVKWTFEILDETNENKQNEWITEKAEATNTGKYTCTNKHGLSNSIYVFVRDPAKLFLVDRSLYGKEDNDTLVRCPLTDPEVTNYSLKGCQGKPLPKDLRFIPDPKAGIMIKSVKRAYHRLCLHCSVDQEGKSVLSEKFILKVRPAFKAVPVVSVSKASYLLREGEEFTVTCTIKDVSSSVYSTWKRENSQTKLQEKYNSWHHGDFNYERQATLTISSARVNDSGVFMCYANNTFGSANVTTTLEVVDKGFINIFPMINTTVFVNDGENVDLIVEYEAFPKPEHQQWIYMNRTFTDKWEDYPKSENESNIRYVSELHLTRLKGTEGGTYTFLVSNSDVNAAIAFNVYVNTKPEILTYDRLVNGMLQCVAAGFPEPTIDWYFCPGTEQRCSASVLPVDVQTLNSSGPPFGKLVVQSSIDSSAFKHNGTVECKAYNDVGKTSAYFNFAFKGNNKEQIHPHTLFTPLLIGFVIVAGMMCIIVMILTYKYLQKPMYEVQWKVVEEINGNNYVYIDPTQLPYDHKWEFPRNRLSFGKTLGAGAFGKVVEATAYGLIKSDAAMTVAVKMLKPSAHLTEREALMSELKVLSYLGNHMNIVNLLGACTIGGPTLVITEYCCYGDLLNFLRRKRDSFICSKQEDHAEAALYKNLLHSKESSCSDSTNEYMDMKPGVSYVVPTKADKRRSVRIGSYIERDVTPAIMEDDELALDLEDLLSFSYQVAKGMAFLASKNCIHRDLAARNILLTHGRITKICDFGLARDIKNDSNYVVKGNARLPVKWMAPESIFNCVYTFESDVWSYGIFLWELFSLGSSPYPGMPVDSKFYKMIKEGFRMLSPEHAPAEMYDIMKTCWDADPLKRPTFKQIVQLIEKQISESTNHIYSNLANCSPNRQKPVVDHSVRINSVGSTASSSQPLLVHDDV", "assay": "Kinase selectivity panel", "assay_type": "biochemical", "conditions": "[ATP] = 1 mM"}, "[8]": {"biological_target": "PIM3 (Homo sapiens, UniProt Q86V86)", "assay": "PIM3 AlphaScreen kinase assay", "assay_type": "biochemical", "conditions": "1 mM ATP; read-out: Mean (SD) IC50", "method": "AlphaScreen assay. Reactions (20 μl) were carried out in white 384-well polystyrene plates (Greiner Bio-One, Kremsmünster, Austria) dotted with 0.8 μl of the compound in dimethylsulfoxide in the assay buffer (50 mM Tris, pH 7.5, 0.01% Tween-20, 5 mM MgCl2, 0.01% bovine serum albumin [BSA], 5 mM dithiothreitol) containing 0.05 μM Biotin-labeled Bcl-2–associated death promoter protein peptide substrate (AnaSpec, Fremont, California), 1 mM ATP, and 2.5 pM PIM1 (Invitrogen, Thermo Fisher Scientific, Waltham, Massachusetts), or 1.25 pM PIM3 (Millipore, Billerica, Massachusetts) enzyme. After 1 hour at 25°C, the reactions were stopped with 10 μl STOP Buffer (150 mM Tris, pH 7.5, 150 mM NaCl, 75 mM ethylenediaminetetraacetic acid [EDTA], 0.01% Tween-20, 0.3% BSA) supplemented with Phospho-Bad (Ser112) antibody (Cell Signaling Technology, Danvers, Massachusetts) diluted 666-fold, and Streptavidin donor beads (PerkinElmer, Waltham, Massachusetts), along with Protein-A acceptor beads (PerkinElmer, Akron, Ohio), at 15 μg/ml each. Supplementation of STOP buffer with beads and stopping the reactions were carried out under reduced light. […] After the reactions were stopped, the plates were incubated for 1 hour in the dark at room temperature and then read on a PHERAstar FS plate reader (BMG Labtech, Cary, North Carolina) under reduced light."}, "[9]": {"test_system": "KMS-12-BM (MM) xenografts", "assay": "Tumor growth in KMS-12-BM (MM) xenograft", "assay_type": "in vivo, mouse", "conditions": "KMS-12-BM tumors", "description": "Female immune compromised (severe combined immunodeficiency [SCID]) mice (5–9 weeks of age; Charles River Laboratories, Wilmington, Massachusetts) were inoculated with MOLM-16, KG-1, or KMS-12-BM cells. A cell suspension in Dulbecco’s phosphate-buffered saline (DPBS) (1 × 10^8 cells/ml) was mixed 1:1 (v/v) with matrigel, and 200 μl was injected subcutaneously into the flank of each mouse. Studies of INCB053914 combination regimens used xenograft models derived from INA-6 (MM) cells or Pfeiffer (DLBCL) cells. INA-6 tumor fragments were injected subcutaneously as brei (100 μl in Hank’s balanced salt solution [HBSS, 1:10 v/v]) into the flank of each mouse; Pfeiffer tumor fragments (1 cm × 1 cm) were directly implanted. The treatment of tumor-bearing mice started 7 to 24 days after tumor inoculation for efficacy studies and approximately 14 to 27 days after tumor inoculation for pharmacodynamic studies.\nFor efficacy studies, mice were sorted to obtain approximately equivalent mean tumor volumes in each group. The starting mean tumor volume in efficacy studies for all groups ranged from 158 mm^3 to 249 mm^3, and groups consisted of eight or nine animals. The mean tumor volume in pharmacodynamic studies for all groups ranged from 114 mm^3 to 833 mm^3, and groups consisted of three to eight animals. INCB053914 was administered by oral gavage twice a day for 7 to 19 days (suspension in 5% dimethylacetamide with 0.5% w/v methylcellulose [Sigma-Aldrich]) or by subcutaneous continuous infusion (Alzet osmotic pumps; flow rate 0.5 μl/h for efficacy studies and 1.0 μl/h for pharmacodynamic studies).\nFor the evaluation of the effects of INCB053914 on tumor growth, tumor-bearing mice (MOLM-16 xenograft, eight mice/group; KMS-12-BM xenograft, nine mice/group) were dosed orally twice a day with INCB053914 at doses ranging from 0 (vehicle) to 100 mg/kg for 15 days.\nTumor volume was calculated in two dimensions using the equation: volume = [length × (width^2)] / 2, where the larger number was length and the smaller number was width. Effects on tumor growth were reported as percent tumor growth inhibition calculated as (1 − [treatment volume / control volume]) × 100, where control volume was the vehicle/untreated tumor volume on a given day and treatment volume was any treatment group tumor volume on that same day. Statistical significance of differences between treatment and vehicle controls was assessed using analysis of variance single factor test."}, "[10]": {"test_system": "BAD phosphorylation in whole blood spiked with KMS-12-BM cells", "assay": "BAD phosphorylation in whole blood samples spiked with tumor cells, treated ex vivo", "assay_type": "cell-based", "conditions": "Homo sapiens"}, "[11]": {"biological_target": "IKKA (Homo sapiens, UniProt O15111)", "sequence (O15111 whole entry)": "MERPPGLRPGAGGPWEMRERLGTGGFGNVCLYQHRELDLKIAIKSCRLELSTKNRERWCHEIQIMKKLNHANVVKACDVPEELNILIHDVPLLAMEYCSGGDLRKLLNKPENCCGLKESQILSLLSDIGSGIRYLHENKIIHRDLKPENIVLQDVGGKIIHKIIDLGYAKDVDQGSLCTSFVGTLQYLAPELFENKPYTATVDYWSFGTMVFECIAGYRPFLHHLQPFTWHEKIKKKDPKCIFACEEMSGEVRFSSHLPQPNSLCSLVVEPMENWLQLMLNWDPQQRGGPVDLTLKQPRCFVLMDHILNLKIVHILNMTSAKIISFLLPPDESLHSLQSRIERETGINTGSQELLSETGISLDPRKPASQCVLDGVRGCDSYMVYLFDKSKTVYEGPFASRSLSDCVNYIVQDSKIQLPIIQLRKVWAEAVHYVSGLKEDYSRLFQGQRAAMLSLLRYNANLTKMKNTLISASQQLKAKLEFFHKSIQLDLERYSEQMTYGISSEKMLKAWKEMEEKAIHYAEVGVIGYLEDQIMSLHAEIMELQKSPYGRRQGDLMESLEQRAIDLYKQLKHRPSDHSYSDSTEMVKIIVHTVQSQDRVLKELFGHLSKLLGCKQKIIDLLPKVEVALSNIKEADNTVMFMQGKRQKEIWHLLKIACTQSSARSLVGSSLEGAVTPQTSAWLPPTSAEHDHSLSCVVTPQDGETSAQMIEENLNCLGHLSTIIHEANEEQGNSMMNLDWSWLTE", "assay": "Kinase selectivity panel", "assay_type": "biochemical", "conditions": "[ATP] = 1 mM"}}}
{"smiles": "C[C@H]1CN(c2c(NC(=O)c3ccc(F)c(-c4c(F)cccc4F)n3)cnc3c2CC[C@H]3O)C[C@@H](N)[C@@H]1O.O=P(O)(O)O", "note": "[INCB053914, N-((R)-4-((3R,4R,5S)-3-amino-4-hydroxy-5-methylpiperidin-1-yl)-7-hydroxy-6,7-dihydro-5H-cyclopenta[b]pyridin-3-yl)-6-(2,6-difluorophenyl)-5-fluoropicolinamide phosphate]", "values": [{"measurement": "IC50", "setting": "[1]", "value": "> 20000", "unit": "nM"}, {"measurement": "IC50", "setting": "[2]", "value": "> 20000", "unit": "nM"}, {"measurement": "IC50", "setting": "[3]", "value": 0.24, "unit": "nM"}, {"measurement": "PIM2 expression", "setting": "[4]", "value": "increased PIM2 expression"}, {"measurement": "IC50", "setting": "[5]", "value": "> 20000", "unit": "nM"}, {"measurement": "selectivity against a panel of more than 50 kinases", "setting": "[6]", "value": "> 475", "unit": "fold"}, {"measurement": "IC50", "setting": "[7]", "value": "> 20000", "unit": "nM"}, {"measurement": "IC50", "setting": "[8]", "value": 0.12, "unit": "nM"}, {"measurement": "tumor growth inhibition", "setting": "[9]; 25 mg/kg twice a day", "value": 43, "unit": "%"}, {"measurement": "tumor growth inhibition", "setting": "[9]; 50 mg/kg twice a day", "value": 71, "unit": "%"}, {"measurement": "tumor growth inhibition", "setting": "[9]; 75 mg/kg twice a day", "value": 77, "unit": "%"}, {"measurement": "tumor growth inhibition", "setting": "[9]; 100 mg/kg twice a day", "value": 88, "unit": "%"}, {"measurement": "IC50", "setting": "[10]", "value": 134, "unit": "nM"}, {"measurement": "IC50", "setting": "[11]", "value": "> 20000", "unit": "nM"}]}
